Assay [1] deals with rabbit serum obtained by immunizing with SARS-CoV strain Frankfurt 1. The assay is classed as binding.
Assay [2] has as its system control serum Blood-bank (commercial negative donor pooled serum). Format: binding, human.
Assay [3] deals with control serum LUMC (pooled serum of ten healthy hospital workers). Format: binding, human.
Assay [4] concerns sera SARS-green, SARS-yellow, 1a, 1b, 2, 6, 37, 62 and London. Format: binding, human.

Data on 21 sequences can be found in patent US20060154243A1 (priority 2003, published 2006).

Take FSLEIQDLEEPCTKV: in assay [1], the “Rabbit serum linear peptides” value was 0.4 and the “Rabbit serum looped peptides” value is given as 0.5. Moreover, in assay [2], the “Control Serum Blood-Bank Looped peptides” value is listed as 1.0 and the “Control serum Blood-bank linear peptides” value stood at 0.7. In addition, in assay [3], the “Control serum LUMC linear peptides” value is on record as 0.6 and the “Control serum LUMC looped peptides” value was 0.7. Further, the “Recognition of the peptide by sera of individuals infected by SARS-CoV, form recognized” value (shortened to “Recognition of the peptide”) in assay [4] is “recognized in linear and in looped form”.

With FWFSLEIQDLEEPCT, in assay [1], the “Rabbit serum linear peptides” value came to 0.1 and the “Rabbit serum looped peptides” value was determined as 0.5. Also, in assay [2], the “Control Serum Blood-Bank Looped peptides” value amounted to 1.1 and the “Control serum Blood-bank linear peptides” value was found to be 0.5. Further, in assay [3], the “Control serum LUMC linear peptides” value is 0.3 and the “Control serum LUMC looped peptides” value is 0.8. In addition, the “Recognition of the peptide” value in assay [4] was “recognized in linear and in looped form”.

On to IFWFSLEIQDLEEPC, for which, in assay [1], the “Rabbit serum linear peptides” value was 0.3 and the “Rabbit serum looped peptides” value is 0.5. For the same sequence, in assay [2], the “Control Serum Blood-Bank Looped peptides” value came out at 0.8 and the “Control serum Blood-bank linear peptides” value was found to be 0.8. Besides, in assay [3], the “Control serum LUMC linear peptides” value came out at 0.7 and the “Control serum LUMC looped peptides” value is recorded as 0.8. Besides, the “Recognition of the peptide” value in assay [4] is “recognized in linear and in looped form”.

For IIFWFSLEIQDLEEP, in assay [1], the “Rabbit serum linear peptides” value is 0.4 and the “Rabbit serum looped peptides” value is 0.0. Moreover, in assay [2], the “Control Serum Blood-Bank Looped peptides” value is 0.9 and the “Control serum Blood-bank linear peptides” value worked out at 0.9. For the same sequence, in assay [3], the “Control serum LUMC linear peptides” value came to 0.7 and the “Control serum LUMC looped peptides” value amounted to 0.8. The “Recognition of the peptide” value in assay [4] is “recognized in linear and in looped form”.

Consider IMLIIFWFSLEIQDL, for which, in assay [1], the “Rabbit serum linear peptides” value came out at 0.9 and the “Rabbit serum looped peptides” value is given as 0.1. In assay [2], the “Control Serum Blood-Bank Looped peptides” value turned out to be 0.6 and the “Control serum Blood-bank linear peptides” value was found to be 0.8. In assay [3], the “Control serum LUMC linear peptides” value came out at 0.7 and the “Control serum LUMC looped peptides” value is given as 0.4. The “Recognition of the peptide” value in assay [4] is “recognized in linear and in looped form”.

Regarding LIIFWFSLEIQDLEE, in assay [1], the “Rabbit serum linear peptides” value stood at 0.5 and the “Rabbit serum looped peptides” value is given as 0.7. For the same sequence, in assay [2], the “Control Serum Blood-Bank Looped peptides” value stood at 0.7 and the “Control serum Blood-bank linear peptides” value worked out at 0.8. In assay [3], the “Control serum LUMC linear peptides” value worked out at 0.7 and the “Control serum LUMC looped peptides” value is 0.9. In addition, the “Recognition of the peptide” value in assay [4] was “recognized in linear and in looped form”.

For the sequence LIMLIIFWFSLEIQD, in assay [1], the “Rabbit serum linear peptides” value was determined as 0.4 and the “Rabbit serum looped peptides” value worked out at 0.6. Moreover, in assay [2], the “Control Serum Blood-Bank Looped peptides” value turned out to be 0.7 and the “Control serum Blood-bank linear peptides” value is listed as 0.9. Moreover, in assay [3], the “Control serum LUMC linear peptides” value worked out at 1.1 and the “Control serum LUMC looped peptides” value stood at 0.7. In addition, the “Recognition of the peptide” value in assay [4] was “recognized in linear and in looped form”.

Consider MLIIFWFSLEIQDLE, for which, in assay [1], the “Rabbit serum linear peptides” value was 1.7 and the “Rabbit serum looped peptides” value is listed as 0.5. Also, in assay [2], the “Control Serum Blood-Bank Looped peptides” value amounted to 0.7 and the “Control serum Blood-bank linear peptides” value turned out to be 1.0. Further, in assay [3], the “Control serum LUMC linear peptides” value was found to be 0.9 and the “Control serum LUMC looped peptides” value was 0.8. The “Recognition of the peptide” value in assay [4] was “recognized in linear and in looped form”.

As for QRCASNKPHVLEDPC, in assay [1], the “Rabbit serum linear peptides” value was determined as 0.1 and the “Rabbit serum looped peptides” value was 0.5. In assay [4], the “Recognition of the peptide” value is “recognized in linear and in looped form”.

Regarding QTNVVPPALHLVDPQ, in assay [1], the “Rabbit serum linear peptides” value is given as 0.1 and the “Rabbit serum looped peptides” value worked out at 0.4. In addition, the “Recognition of the peptide” value in assay [4] is “recognized in linear and in looped form”.

Consider RCASNKPHVLEDPCK, for which, in assay [1], the “Rabbit serum linear peptides” value is 0.1 and the “Rabbit serum looped peptides” value is 0.6. Moreover, the “Recognition of the peptide” value in assay [4] is “recognized in linear and in looped form”.

As to RMEDAMGQGQNSADP, in assay [1], the “Rabbit serum linear peptides” value is recorded as 0.1 and the “Rabbit serum looped peptides” value is 0.5. Also, the “Recognition of the peptide” value in assay [4] is listed as “only recognized in looped form”.

For SCICTVVQRCASNKP, in assay [1], the “Rabbit serum linear peptides” value is recorded as 0.0 and the “Rabbit serum looped peptides” value was found to be 0.8. In addition, in assay [4], the “Recognition of the peptide” value is “recognized in linear and in looped form”.

As to TITRMEDAMGQGQNS, in assay [1], the “Rabbit serum linear peptides” value turned out to be 0.1 and the “Rabbit serum looped peptides” value stood at 0.6. Also, the “Recognition of the peptide” value in assay [4] was “only recognized in looped form”.

As to TKLATTEELPDEFVV, in assay [1], the “Rabbit serum linear peptides” value stood at 0.1 and the “Rabbit serum looped peptides” value was 0.6. The “Recognition of the peptide” value in assay [4] is “recognized in linear and in looped form”.

For the sequence TRMEDAMGQGQNSAD, in assay [1], the “Rabbit serum linear peptides” value worked out at 0.4 and the “Rabbit serum looped peptides” value is listed as 0.4. In addition, the “Recognition of the peptide” value in assay [4] was “only recognized in looped form”.

Turning to VQMTKLATTEELPDE, in assay [1], the “Rabbit serum linear peptides” value came out at 0.3 and the “Rabbit serum looped peptides” value was determined as 0.6. The “Recognition of the peptide” value in assay [4] was “recognized in linear and in looped form”.

With VQRCASNKPHVLEDP, in assay [1], the “Rabbit serum linear peptides” value is given as 0.1 and the “Rabbit serum looped peptides” value was determined as 0.5. The “Recognition of the peptide” value in assay [4] was “recognized in linear and in looped form”.

Take VVQMTKLATTEELPD: in assay [1], the “Rabbit serum linear peptides” value turned out to be 0.3 and the “Rabbit serum looped peptides” value turned out to be 0.6. Further, the “Recognition of the peptide” value in assay [4] is “recognized in linear and in looped form”.

In the case of VVQRCASNKPHVLED, in assay [1], the “Rabbit serum linear peptides” value was 0.2 and the “Rabbit serum looped peptides” value is 0.5. The “Recognition of the peptide” value in assay [4] is “recognized in linear and in looped form”.

As to WFSLEIQDLEEPCTK, in assay [1], the “Rabbit serum linear peptides” value was 0.0 and the “Rabbit serum looped peptides” value amounted to 0.4. Further, in assay [2], the “Control Serum Blood-Bank Looped peptides” value is 0.7 and the “Control serum Blood-bank linear peptides” value stood at 0.6. In assay [3], the “Control serum LUMC linear peptides” value is 0.5 and the “Control serum LUMC looped peptides” value is recorded as 0.5. For the same sequence, the “Recognition of the peptide” value in assay [4] is “recognized in linear and in looped form”.
